Reference: US8951938B2, “Combinatorial rosamine library to detect cell-state switching” (New York University, priority 2007, dated 2015)
“Also recorded” adds a separate entry of the source.

Tests used:
RNA = assay: Analyte screening of rosamine library, fluorescence response
Experimental: (§1) The rosamine derivative compounds were screened toward 47 different analytes that include proteins, polysaccharides, nucleic acids, and metal ions. The stock solution of each dye (50 μL) in HEPES (20 mM, pH=7.4) or PBS (20 mM, pH=7.4) was prepared, and diluted with the each analyte (50 μL, 1.0 mg/mL or 200 μM) in the same buffer solution. The final dye concentration varied from 0.5 μM to 10 μM. The fluorescence intensity fold changes of each dye in the presence of analytes were calculated by comparing the fluorescence intensity at the maximum emission wavelength with/without the analyte.

DNA = assay: as above
Experimental: as §1

Row | SMILES | fluorescence response to RNA among 47 analytes (RNA) | fluorescence response to DNA among 47 analytes (DNA)
1 | CC1=CC(C)(C)N(C)c2ccc3c(=O)c4ccc(N)cc4n(C)c3c21 [J] | selective response; also recorded: selective increase | –
2 | CCN(CCCN(C)C)c1ccc2c(=O)c3ccc(N)cc3oc2c1 [L, 3-Amino-6-[(3-dimethylamino-propyl)-ethyl-amino]-xanthen-9-one] | – | selective response; also recorded: selective increase
